Reference: paper PMC4911231 (Journal of acquired immune deficiency syndromes (1999), 2016)
Several values for one entry are separate records, joined by “and”; a condition that tells them apart may be missing. Identical values can stand only once. Like-named read-outs stand apart in the source and are kept apart here. Marks after values point to notes of the source that are not given here.

Columns and labels:
[1] = cited from earlier work
[2] = for AUC24 geometric mean (90% CI) ratio: within-subject; for Tmax: mode (range); for Vd/F: Vd/F (apparent volume of distribution); for AUC: one subject on concomitant darunavir/ritonavir
[3] = cited from earlier work; remark: listed apart in the source
HIV-1 [4] = conditions: cited from earlier work
clinical = conditions: female, human, in vivo
[5] = cited from earlier work; remark: listed apart in the source
[6] = cited from earlier work; remark: listed apart in the source
[7] = Maternal safety, pregnancy and infant outcomes; format: in vivo, human
[8] = test system: cytochrome P450 3A4 (CYP 3A4); conditions: cited from earlier work
[9] = Stability in stored plasma; format: physicochemical; conditions: plasma stored at −70°C
HIV-1 [10] = test: Maternal plasma HIV-1 RNA; format: in vivo, human; conditions: rilpivirine with combination antiretrovirals
[11] = 25 mg once daily, postpartum, median (range)
[12] = 25 mg once daily, second trimester, median (range)
[13] = 25 mg once daily, third trimester, median (range)
[14] = Second Trimester/Postpartum, n = 15
[15] = Second Trimester/Third Trimester, n = 15
[16] = Third Trimester/Postpartum, n = 28
[17] = female, human, plasma, oral, 25 mg, 25 mg once daily, second trimester, median (range)

CC(C)(C)NC(=O)[C@@H]1CN(Cc2cccnc2)CCN1C[C@@H](O)C[C@@H](Cc1ccccc1)C(=O)N[C@H]1c2ccccc2C[C@H]1O [indinavir]
AUC during pregnancy compared to postpartum ([1]; in vivo): significant decreases

Cc1cc(/C=C/C#N)cc(C)c1Nc1ccnc(Nc2ccc(C#N)cc2)n1 [Rilpivirine]
C0 (pre-dose concentration) [2, 11]: 69 (<10 – 285) ng/mL
C24 (24 hour post-dose concentration) [2, 11]: 81 (<10 – 299) ng/mL
Cmin (minimum observed concentration) [2, 11]: 58 (<10 – 200) ng/mL
C0 (pre-dose concentration) [2, 12]: 98(31 – 216) ^‡ ng/mL
C24 (24 hour post-dose concentration) [2, 12]: 63(37 – 225) ^* ng/mL
Cmin (minimum observed concentration) [2, 12]: 65(29 – 178) ng/mL
C0 (pre-dose concentration) [2, 13]: 56(<10 – 210) ng/mL
C24 (24 hour post-dose concentration) [2, 13]: 56(<10 – 181) ^† ng/mL
Cmin (minimum observed concentration) [2, 13]: 51(<10 – 136) ng/mL
Coefficient of variation (CV) for Cmax ([2]; 2nd trimester): 53%
Coefficient of variation (CV) for Cmin ([2]; 2nd trimester): 55%
Coefficient of variation (CV) for AUC ([2]; 2nd trimester, between-subject): 186%
Coefficient of variation (CV) for AUC ([2]; 3rd trimester): 194%
Coefficient of variation (CV) for Cmax ([2]; 3rd trimester): 212%
Coefficient of variation (CV) for Cmin ([2]; 3rd trimester): 154%
Minimum plasma concentration (Cmin), median (range) ([2]; 14 visits with detectable HIV-1 RNA): 30 (<10 – 93) ng/mL and 30 ng/mL
Minimum plasma concentration (Cmin), median (range) ([2]; 62 visits with undetectable HIV-1 RNA): 63 (15 – 199) ng/mL and 63 ng/mL
C0 geometric mean (90% CI) ratio [2, 14]: 0.91 (0.61 – 1.38)
C24 geometric mean (90% CI) ratio [2, 14]: 0.70 (0.55 – 0.90)
CL/F geometric mean (90% CI) ratio [2, 14]: 1.33 (1.04 – 1.70)
Cmax geometric mean (90% CI) ratio [2, 14]: 0.84 (0.69 – 1.02)
Cmin geometric mean (90% CI) ratio [2, 14]: 0.88 (0.63 – 1.21)
Vd/F geometric mean (90% CI) ratio [2, 14]: 1.50 (0.58 – 3.93)
AUC24 geometric mean (90% CI) ratio [2, 14]: 0.77 (0.61 – 0.96)
C0 geometric mean (90% CI) ratio [2, 15]: 1.30 (1.06 – 1.60)
C24 geometric mean (90% CI) ratio [2, 15]: 1.09 (0.95 – 1.26)
CL/F geometric mean (90% CI) ratio [2, 15]: 0.92 (0.81 – 1.05)
Cmax geometric mean (90% CI) ratio [2, 15]: 1.13 (0.96 – 1.34)
Cmin geometric mean (90% CI) ratio [2, 15]: 1.22(1.02 – 1.45)
Vd/F geometric mean (90% CI) ratio [2, 15]: 0.36(0.22 – 0.58)
AUC24 geometric mean (90% CI) ratio [2, 15]: 1.09 (0.96 – 1.23)
C0 geometric mean (90% CI) ratio [2, 16]: 0.94 (0.59 – 1.50)
C24 geometric mean (90% CI) ratio [2, 16]: 0.84 (0.57 – 1.23)
CL/F geometric mean (90% CI) ratio [2, 16]: 1.26 (0.97 – 1.64)
Cmax geometric mean (90% CI) ratio [2, 16]: 0.83 (0.68 – 1.01)
Cmin geometric mean (90% CI) ratio [2, 16]: 1.11 (0.70 – 1.74)
Vd/F geometric mean (90% CI) ratio [2, 16]: 1.42 (0.68 – 2.97)
AUC24 geometric mean (90% CI) ratio [2, 16]: 0.80 (0.62 – 1.03)
concentration at 24 h ([2]; female, human, plasma, oral, 25 mg, C24 (24 hour post-dose concentration), 25 mg once daily, second trimester, median (range)): 63 ng/mL
Cmax ([2]; female, human, plasma, oral, 25 mg, 25 mg once daily, postpartum, median (range)): 134 ng/mL
Cmax [2, 17]: 145 ng/mL
Tmax ([2]; female, human, plasma, oral, 25 mg, 25 mg once daily, postpartum): 4 h
Tmax ([2]; female, human, plasma, oral, 25 mg, 25 mg once daily, third trimester): 2 h
Vd/F [2, 17]: 750 L
Vd/F ([2]; female, human, plasma, oral, 25 mg, 25 mg once daily, third trimester, median (range)): 1210 L
AUC ([2]; human, plasma, oral, 25 mg, second trimester): 12400 ng·h/mL
AUC ([2]; human, plasma, oral, 25 mg, third trimester): 3600 ng·h/mL
Coefficient of variation (CV) for AUC ([2]; postpartum): 60%
Coefficient of variation (CV) for Cmax ([2]; postpartum): 58%
Coefficient of variation (CV) for Cmin ([2]; postpartum): 71%
Women below the AUC0–24 10th percentile target (880 ng*hr/mL) ([2]; postpartum, 3 of 28): 11%
Women with absorption lag (1 hour post-dose concentration less than pre-dose) ([2]; postpartum, 11 of 28): 39%
C24 lower vs. postpartum ([2]; second trimester): 30%
Reduction of AUC compared to postpartum ([2]; second trimester): 23%
Women below the AUC0–24 10th percentile target (880 ng*hr/mL) ([2]; second trimester, 1 of 15): 7%
Women with absorption lag (1 hour post-dose concentration less than pre-dose) ([2]; second trimester, 9 of 18): 50%
C24 lower vs. postpartum ([2]; third trimester): 16%
Reduction of drug exposure (AUC) compared to postpartum ([2]; third trimester): 20%
Women below the AUC0–24 10th percentile target (880 ng*hr/mL) ([2]; third trimester, 2 of 28): 7%
Women with absorption lag (1 hour post-dose concentration less than pre-dose) ([2]; third trimester, 13 of 30): 43%
Coefficient of variation (CV) for AUC ([3]; human, in vivo): 38%
10th percentile rilpivirine AUC ([3]; non-pregnant adults): 880 ng·h/mL
median EC50 (HIV-1 [4]): 0.27 ng/mL
median EC90 (HIV-1 [4]): 0.66 ng/mL
protein binding-adjusted EC50 (HIV-1 [4]): 5.0 ng/mL
Kp (clinical): 0.55
Maternal plasma rilpivirine concentration at delivery, median (range) (clinical): 103.3 (<10 to 273.4) ng/mL
Umbilical cord blood rilpivirine concentration at delivery, median (range) (clinical): 53.78 (<10 to 219.7) ng/mL
Cord blood to maternal plasma ratio ([5]; one person): 0.74
Reduction in exposure during pregnancy compared to postpartum ([5]; two women, one value each): 30% and 43%
Bound to protein [6]: 99.7%
Number of preterm deliveries ([7]; at 32, 35, and 36 weeks, N of 30): 3 (10%)
Gestational age at delivery, median (range) ([7]; in vivo): 38.9 (32.3 – 41.4) weeks
Infant Birth weight, median (range) ([7]; in vivo): 3095 (1570 – 4570) g
Tolerability ([7]; pregnant and postpartum women, 25 mg once daily): well tolerated
Substrate of cytochrome P450 3A4 [8]: substrate
Stability in plasma [9]: 2 years
HIV-1 RNA at 2nd trimester, median (range) (HIV-1 [10]): < 40 (<20 – 2770) copies/mL
HIV-1 RNA at 3rd trimester, median (range) (HIV-1 [10]): < 20 (<20 – 48700) copies/mL
HIV-1 RNA at Delivery, median (range) (HIV-1 [10]): < 20 (<16 – 48700) copies/mL

CC(C)(C)NC(=O)[C@@H]1C[C@@H]2CCCC[C@@H]2CN1C[C@@H](O)[C@H](Cc1ccccc1)NC(=O)[C@H](CC(N)=O)NC(=O)c1ccc2ccccc2n1 [saquinavir]
AUC during pregnancy compared to postpartum ([1]; in vivo): significant decreases

Cc1ccnc2c1NC(=O)c1cccnc1N2C1CC1 [nevirapine]
AUC reduced during third trimester compared to postpartum ([1]; in vivo): 20%
Cmax reduced during third trimester compared to postpartum ([1]; in vivo): 20%
Cmin reduced during third trimester compared to postpartum ([1]; in vivo): 20%

CC(C)CN(C[C@@H](OP(=O)(O)O)[C@H](Cc1ccccc1)NC(=O)O[C@H]1CCOC1)S(=O)(=O)c1ccc(N)cc1 [fosamprenavir]
AUC during pregnancy compared to postpartum ([1]; in vivo): significant decreases

Cc1cccc(C)c1OCC(=O)N[C@@H](Cc1ccccc1)[C@@H](O)C[C@H](Cc1ccccc1)NC(=O)[C@H](C(C)C)N1CCCNC1=O [lopinavir]
AUC during pregnancy compared to postpartum ([1]; in vivo): significant decreases

O=C1Nc2ccc(Cl)cc2[C@@](C#CC2CC2)(C(F)(F)F)O1 [efavirenz]
Clearance during pregnancy [1]: increased

Cc1cc(C#N)cc(C)c1Oc1nc(Nc2ccc(C#N)cc2)nc(N)c1Br [etravirine]
Exposure during pregnancy compared to postpartum [1]: increased

Cc1c(O)cccc1C(=O)N[C@@H](CSc1ccccc1)[C@H](O)CN1C[C@H]2CCCC[C@H]2C[C@H]1C(=O)NC(C)(C)C [nelfinavir]
AUC during pregnancy compared to postpartum ([1]; HIV protease inhibitors): significant decreases

COC(=O)N[C@H](C(=O)N[C@@H](Cc1ccccc1)[C@@H](O)CN(Cc1ccc(-c2ccccn2)cc1)NC(=O)[C@@H](NC(=O)OC)C(C)(C)C)C(C)(C)C [atazanavir]
AUC during pregnancy compared to postpartum ([1]; HIV protease inhibitors): significant decreases

CC(C)CN(C[C@@H](O)[C@H](Cc1ccccc1)NC(=O)O[C@H]1CO[C@H]2OCC[C@H]21)S(=O)(=O)c1ccc(N)cc1 [darunavir]
AUC during pregnancy compared to postpartum ([1]; HIV protease inhibitors): significant decreases
